From patent US9885703B2, “Evaluation method and screening method for sphingosine-1-phosphate 1 (S1P1) receptor agonists” (MEIJI SEIKA PHARMA CO., LTD., priority 2013, dated 2018)
Where two headings read alike, the source gives them in different places.

Experiments:
[1] = target: T1, S1P1 receptor coupled to Gαi3 (Homo sapiens, UniProt P21453); assay: Gα subtype-specific S1P1 receptor agonist activity (BRET, NPL 7), HEK 293T cells co-expressing S1P1 receptor, Gαi3, Gγ2 and Gβ1; type: cell-based; details: Gαi3 expressed
T1 construct: expressed in transfected cells; host or cells: HEK 293T cells
T1 sequence (P21453 whole entry): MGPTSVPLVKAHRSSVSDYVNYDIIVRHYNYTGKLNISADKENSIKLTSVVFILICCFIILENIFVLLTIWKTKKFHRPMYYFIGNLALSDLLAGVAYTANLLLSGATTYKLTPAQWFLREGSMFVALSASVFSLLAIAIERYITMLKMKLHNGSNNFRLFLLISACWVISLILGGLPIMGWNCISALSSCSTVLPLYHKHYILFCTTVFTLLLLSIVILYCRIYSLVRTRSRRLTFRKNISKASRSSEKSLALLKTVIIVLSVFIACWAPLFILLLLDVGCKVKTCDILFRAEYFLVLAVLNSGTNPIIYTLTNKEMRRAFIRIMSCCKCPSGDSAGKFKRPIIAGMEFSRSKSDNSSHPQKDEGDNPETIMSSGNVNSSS
T1 sequence (P08754 2-354 partner limits assumed): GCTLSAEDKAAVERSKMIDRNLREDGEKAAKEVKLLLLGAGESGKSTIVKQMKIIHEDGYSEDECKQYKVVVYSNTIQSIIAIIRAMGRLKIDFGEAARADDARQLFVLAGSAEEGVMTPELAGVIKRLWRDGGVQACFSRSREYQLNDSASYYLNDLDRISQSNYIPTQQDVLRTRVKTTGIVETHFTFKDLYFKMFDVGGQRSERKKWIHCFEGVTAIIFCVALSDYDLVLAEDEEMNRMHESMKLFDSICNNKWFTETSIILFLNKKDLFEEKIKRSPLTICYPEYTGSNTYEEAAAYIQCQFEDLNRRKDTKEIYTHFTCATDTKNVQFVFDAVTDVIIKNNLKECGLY
T1 sequence (P62873 2-340 partner limits assumed): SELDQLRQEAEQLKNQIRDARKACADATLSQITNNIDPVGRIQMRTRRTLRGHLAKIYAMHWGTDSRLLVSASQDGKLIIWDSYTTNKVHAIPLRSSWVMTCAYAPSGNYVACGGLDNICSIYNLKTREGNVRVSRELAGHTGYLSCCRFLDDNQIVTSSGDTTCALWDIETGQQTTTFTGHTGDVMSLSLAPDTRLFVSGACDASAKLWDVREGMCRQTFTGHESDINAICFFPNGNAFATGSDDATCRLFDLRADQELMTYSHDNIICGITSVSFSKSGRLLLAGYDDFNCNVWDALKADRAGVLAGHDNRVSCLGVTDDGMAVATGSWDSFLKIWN
T1 sequence (P59768 2-68 partner limits assumed): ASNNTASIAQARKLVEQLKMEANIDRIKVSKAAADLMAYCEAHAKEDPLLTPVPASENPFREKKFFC
Text: (§1) In the present invention, an agonist activity specific to a Gαi subtype can be measured, for example, according to the method described in the present Example 1 (2) (the method described in NPL 7). To be more specific, by allowing cells to express an S1P1 receptor and a particular Gα subtype together with Gγ2 and Gβ1, an agonist activity can be measured on the basis of a difference in percentage between the Gα protein and the Gβγ protein caused by an S1P1 receptor agonist.
(§2) Next, the Gα protein subtype-specific S1P1 receptor agonist activities were evaluated according to the method described in NPL 7. Note that the expression conditions followed the section of “Supplementary Methods” in NPL 7, and the measurement conditions followed the section of “Bioluminescence resonance energy transfer measurement.”
(§3) First, HEK 293T cells were allowed to co-express an S1P1 receptor, a particular Gα subtype (Gαi1, Gαi2, or Gαi3), Gγ2, and Gβ1. Then, on the basis of a difference in percentage between the Gα protein and the Gβγ protein caused by the endogenous agonist S1P, the agonist activity was measured.

[2] = target: T2, S1P1 receptor coupled to Gαi1 (Homo sapiens, UniProt P21453); assay: Gα subtype-specific S1P1 receptor agonist activity (BRET, NPL 7), HEK 293T cells co-expressing S1P1 receptor, Gαi1, Gγ2 and Gβ1; type: cell-based; details: Gαi1 expressed
T2 construct: expressed in transfected cells; host or cells: HEK 293T cells
T2 sequence (P21453 whole entry): as the sequence (P21453 whole entry) above
T2 sequence (P63096 2-354 partner limits assumed): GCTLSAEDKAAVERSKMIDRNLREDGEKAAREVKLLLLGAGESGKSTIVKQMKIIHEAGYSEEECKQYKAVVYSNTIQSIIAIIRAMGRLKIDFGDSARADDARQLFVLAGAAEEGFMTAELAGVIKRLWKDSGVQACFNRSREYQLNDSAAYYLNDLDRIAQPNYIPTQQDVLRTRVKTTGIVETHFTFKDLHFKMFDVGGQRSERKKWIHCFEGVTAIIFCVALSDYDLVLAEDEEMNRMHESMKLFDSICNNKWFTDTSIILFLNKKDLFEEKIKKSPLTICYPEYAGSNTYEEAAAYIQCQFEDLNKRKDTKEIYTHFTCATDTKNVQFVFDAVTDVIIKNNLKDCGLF
T2 sequence (P62873 2-340 partner limits assumed): as the sequence (P62873 2-340 partner limits assumed) above
T2 sequence (P59768 2-68 partner limits assumed): as the sequence (P59768 2-68 partner limits assumed) above
Text: as §1, §2, §3

S1P1 receptor = target: T3, S1P1 receptor (Homo sapiens, UniProt P21453); assay: General S1P1 receptor agonist activity, CHO cells expressing S1P1 receptor (method of Experimental Example 1 of PTL 1); type: cell-based; details: method of PTL 1
T3 construct: expressed in transfected cells; host or cells: CHO cells
T3 sequence (P21453 whole entry): as the sequence (P21453 whole entry) above
Text: As a general method for evaluating an S1P1 receptor agonist activity, there has been known a method which uses CHO cells expressing a S1P1 receptor, and the like to measure an agonist activity on the basis of binding to the receptor and a signal transduction activity through the binding (PTL 1).

complete AV block = assay: Cardiotoxicity evaluation: AV block in guinea pigs under anesthesia; type: in vivo, male guinea pigs; details: anesthetized guinea pigs, 0.01 mg/kg by infusion for 10 minutes
Experimental: (§4) In this model, the guinea pigs used were highly responsive to an S1P1 receptor, and further the model was capable of reliable detection of S1P1 receptor-dependent cardiotoxicity under anesthesia. An electrocardiograph and a pacing device were attached to the male guinea pigs whose breathings were artificially controlled under anesthesia, and the drugs were administered.

[3] = system: number of lymphocytic cells in blood; assay: Efficacy evaluation: number of lymphocytic cells in blood after oral administration; type: in vivo; details: male SD rats; for ED50: Rattus norvegicus
Experimental: BAF312 or the compound B was orally administered to male SD rats at different doses. After 3, 6, and 24 hours, and the number of lymphocytic cells in blood was counted using a blood cell counter.

[4] = Blood concentration in the guinea pig cardiotoxicity model; type: in vivo; details: male, whole blood, intravenous, guinea pigs, 0.01 mg/kg infusion for 10 minutes
Experimental: as §4
In addition, the blood concentrations of BAF312 and the compound B when the administrations were completed were respectively 17 nM and 91 nM. The blood concentrations after 1 hour were respectively <4 nM and 27 nM.

[5] = target: T4, S1P1 receptor coupled to Gαi2 (Homo sapiens, UniProt P21453); assay: Gα subtype-specific S1P1 receptor agonist activity (BRET, NPL 7), HEK 293T cells co-expressing S1P1 receptor, Gαi2, Gγ2 and Gβ1; type: cell-based; details: Gαi2 expressed
T4 construct: expressed in transfected cells; host or cells: HEK 293T cells
T4 sequence (P21453 whole entry): as above
T4 sequence (P04899 2-355 partner limits assumed): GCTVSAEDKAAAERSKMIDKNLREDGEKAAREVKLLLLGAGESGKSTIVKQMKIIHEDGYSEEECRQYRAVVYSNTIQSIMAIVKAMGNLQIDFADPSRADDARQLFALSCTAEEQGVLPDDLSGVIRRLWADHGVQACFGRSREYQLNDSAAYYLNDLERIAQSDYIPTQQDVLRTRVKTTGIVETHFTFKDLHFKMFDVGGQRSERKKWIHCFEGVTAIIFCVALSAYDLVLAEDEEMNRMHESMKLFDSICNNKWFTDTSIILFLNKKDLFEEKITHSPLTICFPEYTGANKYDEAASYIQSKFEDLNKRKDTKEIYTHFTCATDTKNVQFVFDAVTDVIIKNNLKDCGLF
T4 sequence (P62873 2-340 partner limits assumed): as the sequence (P62873 2-340 partner limits assumed) above
T4 sequence (P59768 2-68 partner limits assumed): as the sequence (P59768 2-68 partner limits assumed) above
Text: as §1, §2, §3

S1P receptor = details: reported generally, varies with evaluation method; read-out: 50% activation concentration (EC50 value) as an agonist activity against an S1P receptor; cited from earlier work

| SMILES | EC50 [1] | EC50 [2] | EC50 (S1P1 receptor) | expression of complete AV block (cases) (complete AV block; four cases) | continuation of complete AV block (complete AV block; until 1 hour) | ED50 ([3]; 6 hours, read-out: dose for suppressing the number of lymphocytic cells by 50% (ED50) after 6 hours) | ED50 ([3]; 24 hours, read-out: dose for suppressing the number of lymphocytic cells by 50% (ED50) after 24 hours) | effective blood concentration after 24 hours ([3]; 24 hours, calculated) | concentration at 1 h ([4]; after 1 hour) | concentration at 10 min ([4]; end of administration, read-out: blood concentration when the administration was completed) | EC50 [5] | EC50 (S1P receptor) |
| --- | --- | --- | --- | --- | --- | --- | --- | --- | --- | --- | --- | --- |
| CCc1cc(/C(C)=N/OCc2ccc(C3CCCCC3)c(C(F)(F)F)c2)ccc1CN1CC(C(=O)O)C1 [BAF312, Siponimod] | 27 nM | 122 nM | 3 nM | four out of four cases | continued in all the cases until 1 hour elapsed | 0.1 mg/kg | > 1 mg/kg | > 208 nM | < 4 nM | 17 nM | 81 nM | – |
| CCCCCCCCCCCCC/C=C/[C@@H](O)[C@@H](N)COP(=O)(O)O [Compound S1P, sphingosine-1-phosphate] | 8.4 nM | 261 nM | 6.4 nM | – | – | – | – | – | – | – | 14.6 nM | ~10 nM |
